Source: patent publication US12031151B2, “Methods of improving protein titer in cell culture” (Regeneron Pharmaceuticals, Inc., priority 2021, dated 2024)

Tested on: protein titer of dupilumab production cell culture
Test: LC-MS analysis of HEPES related impurities and titer correlation evaluation across cell culture production runs
Format: cell-based
Conditions: for Pearson Correlation Coefficient, 5 HEPES salt lots / Pearson Correlation Coefficient, 7 CDM1B lots (Geel) / Pearson Correlation Coefficient, 20 CDM1B lots (Rens): correlation of impurity abundance with final titer; for Pearson Correlation Coefficient, 7 CDM1B lots (Geel): 7 CDM1B media lots; for Pearson Correlation Coefficient, 20 CDM1B lots (Rens): 20 CDM1B media lots; for correlation of impurity abundance with titer: dupilumab production runs, Site 1 (20 runs) and Site 2 (7 runs)
Procedure: ANOVA analysis of the lot genealogy of 53 different components of a chemically defined media was performed between lots utilized in “high titer” performing cell culture runs and “low titer” performing cell culture runs. HEPES acid and salt were identified as “high risk” components, showing the strongest correlation with final titer (the correlation was stronger than the correlation between the titer and media as whole). HEPES also was identified as a “high risk component” in an independent risk-based analysis that considered the weight fractions of components in the media formulation, components' COA purity and their manufacturing methods.
Following identification of HEPES as a “high risk” component with strong correlation to final titer, an analysis of the chemical composition of HEPES buffer lots was performed, including LC-MS and titer correlations evaluations.
Large scale production runs were performed at multiple sites to produce dupilumab. […] Based on the findings, and in accordance with the inventions, improved protein titer may be obtained by using media having reduced HEPES related impurities, in accordance with the inventions.
FIG. 1 illustrates the relation between relative amounts of HEPES+[O2]−[H2] and protein titer. […] Summary of fit data is shown below each graph of FIGS. 2A and 2B.
FIG. 3 illustrates the relation between relative amounts of HEPES−[CH4] and protein titer. […] Summary of fit data is shown below each graph of FIGS. 4A and 4B.

SMILES: O=S(=O)(O)CC(O)O [2,2-Dihydroxyethane-sulfonic acid]
- Pearson Correlation Coefficient, 5 HEPES salt lots: −0.85

SMILES: CC(=O)NCS(=O)(=O)O [Acetamidomethane-sulfonic acid]
- Pearson Correlation Coefficient, 5 HEPES salt lots: −0.81
- Pearson Correlation Coefficient, 7 CDM1B lots (Geel): −0.34
- Pearson Correlation Coefficient, 20 CDM1B lots (Rens): −0.78

SMILES: O=CN(CCO)CCN(C=O)CCS(=O)(=O)O [HEPES+[O2]−[H2]]
- Pearson Correlation Coefficient, 5 HEPES salt lots: −0.82
- Pearson Correlation Coefficient, 7 CDM1B lots (Geel): −0.68
- Pearson Correlation Coefficient, 20 CDM1B lots (Rens): −0.77
- correlation of impurity abundance with titer: negative correlation with titer

SMILES: O=CN1CCN(CCS(=O)(=O)O)CC1 [HEPES−[CH4]]
- Pearson Correlation Coefficient, 5 HEPES salt lots: −0.85
- Pearson Correlation Coefficient, 7 CDM1B lots (Geel): −0.83
- Pearson Correlation Coefficient, 20 CDM1B lots (Rens): −0.68
- correlation of impurity abundance with titer: negative correlation with titer

SMILES: C=CS(=O)(=O)O [Vinylsulfonic acid]
- Pearson Correlation Coefficient, 5 HEPES salt lots: −0.60
- Pearson Correlation Coefficient, 7 CDM1B lots (Geel): 0.41
- Pearson Correlation Coefficient, 20 CDM1B lots (Rens): 0.16
